Source: ChEMBL document CHEMBL1126342, “Synthesis and preliminary biological evaluation of 1-aminomethyl-4-substituted-4-H-pyrrolo[2,1-C][1,4] benzothiazines, a new class of calcium antagonists” (Bioorg Med Chem Lett, 1992)
Where “and” joins values, the source holds several entries; their conditions need not be identical. Identical values can stand only once. Each block holds one molecule with its values, some of them ahead of it.

Key:
[1] = biological target: Voltage-gated L-type calcium channel (Rattus norvegicus, UniProt P22002+Q02485+P27732); experiment: Displacement of [3H]nitrendipine from calcium channel receptor; assay type: protein assay
[2] = organism: Mus musculus; experiment: Blocking calcium channels in mice using electrophysiological technique at 100 uM; assay type: functional
[3] = organism: Mus musculus; experiment: Blocking calcium channels in mice using electrophysiological technique at 10 uM; assay type: functional

SMILES: COc1ccc(C2Sc3ccccc3-n3c(CN(C)C)ccc32)c(OC)c1 (centres undefined)
Activity [2]: 74%
Activity [3]: 24%
IC50 [1]: 150 nM
Ki [1]: 56 nM

SMILES: CN(C)Cc1ccc2n1-c1ccccc1SC2c1ccccc1 (centres undefined)
Activity [3]: 40% and 65%
IC50 [1]: 315 nM
Ki [1]: 118 nM

SMILES: COc1ccc(C2Sc3ccccc3-n3c(CN(C)C)ccc32)cc1 (centres undefined)
Activity [2]: 62%
Activity [3]: 20%

SMILES: COc1ccc(C2Sc3ccccc3-n3c(CN(C)CCc4ccc(OC)c(OC)c4)ccc32)cc1.Cl (centres undefined)
IC50 [1]: 53 nM
Ki [1]: 19 nM

SMILES: COc1ccc([C@@H]2Sc3ccccc3N(CCN(C)C)C(=O)[C@@H]2OC(C)=O)cc1 [DILTIAZEM]
Activity [2]: 62%
Activity [3]: 24%

Other lines, results leading:

IC50 [1]: 5870 nM
Ki [1]: 2200 nM
SMILES: COc1ccc(C2Sc3ccccc3-n3c(CNc4ccc(F)cc4)ccc32)cc1 (centres undefined)

IC50 [1]: 14.8 nM
Ki [1]: 5.55 nM
SMILES: CCC(C)NCc1ccc2n1-c1ccccc1SC2c1ccc(OC)cc1OC (centres undefined)

IC50 [1]: 534 nM
Ki [1]: 200 nM
SMILES: COc1ccc(C2Sc3ccccc3-n3c(CNCCc4ccc(OC)c(OC)c4)ccc32)cc1 (centres undefined)
